Reference: patent publication US20100069499A1 (priority 2007, published 2010)

Tests used:
Sclerotinia sclerotiorum = assay: Test of preventive effect on cucumber stem rot; assay type: in vivo; conditions: cucumber (Sagamihanjiro), foliage application 500 ppm, 4 days at 18° C. and high humidity
Method: (§1) The controlling effect was evaluated by visually observing the area or a lesion spots on each of test plants at the time of investigation and comparing the area of lesion spots on a plant treated with the compound of the present invention with that on an untreated plant.
Each of plastic pots was filled with sandy loam and sown with cucumber (variety; Sagamihanjiro), followed by growing in a greenhouse for 12 days. The compound 2 of the present invention was formulated into a flowable formulation according to Formulation Example 6. The flowable formulation was diluted to a predetermined concentration (500 ppm) with water, and foliage application of the dilution was carried out so that the dilution adhered sufficiently to the surfaces of leaves of the grown cucumber young seedling. After the foliage application, the plant was air-dried and a PDA medium containing mycelia of Sclerotinia sclerotiorum was placed on the surfaces of the cucumber leaves. After the inoculation, the plant was grown at 18° C. and high humidity for 4 days. Then, the area of lesion spots was investigated.

Fusarium culmorum = assay: Test of preventive effect on wheat Fusarium blight; assay type: in vivo; conditions: wheat (Shirogane), foliage application 500 ppm, 4 days darkness and high humidity at 23° C. then 3 days lighting
Method: as §1
Each of plastic pots was filled with sandy loam and sown with wheat (cultivar; Shirogane), followed by growing in a greenhouse for 10 days. The compound 1 of the present invention was formulated into a flowable formulation according to Formulation Example 6. The flowable formulation was diluted to a predetermined concentration (500 ppm) with water, and foliage application of the dilution was carried out so that the dilution adhered sufficiently to the surfaces of leaves of the grown wheat young seedling. After the foliage application, the plant was air-dried and then inoculated by spraying a water suspension of spores of Fusarium culmorum. After the inoculation, the plant was held under darkness and high humidity conditions at 23° C. for 4 days and held under lighting conditions for 3 days, and then the area of lesion spots was investigated.

Row | SMILES | area of lesion spots on the treated plant relative to that on an untreated plant (Sclerotinia sclerotiorum) [%] | area of lesion spots on the treated plant relative to that on an untreated plant (Fusarium culmorum) [%]
1 | C#CCOc1c(F)cc(C(=O)NC2CCCCC2C)cc1Cl (centres unmarked) [compound 2, N-(2-methylcyclohexyl)-3-chloro-5-fluoro-4-(2-propynyloxy)benzamide] | ≤ 30 | –
2 | C#CCOc1c(F)cc(C(=O)NCC2CCCCC2)cc1Cl [compound 1, N-(cyclohexylmethyl)-3-chloro-5-fluoro-4-(2-propynyloxy)benzamide] | – | ≤ 30
